Data taken from paper PMC7819857, “Identification of Inhibitors of Integrin Cytoplasmic Domain Interactions With Syk” (Frontiers in Immunology, 2021).
Read-outs that look alike come from different tables or passages of the source.

Legend:
[1] = target: T1, integrin β3 cytoplasmic domain : tandem SH2 domains of Syk (GST-Syk(6-370)) (Homo sapiens, UniProt P43405); assay: AlphaScreen of integrin β3 cytoplasmic domain peptide binding to GST-Syk(6-370)
T1 construct: the tandem SH2 domains of Syk (residues 6-370); made in house; host or cells: E. coli BL21(DE3)
Procedure: The following HTS assay was developed to identify antagonists of the interaction between the integrin β3 cytoplasmic domain and the non-receptor tyrosine kinase Syk. […] ( Figure 1E ). Background signals in this assay were determined by omitting the integrin β3 peptide. Specific assay conditions are described in Table 1 . […] Then, either dimethyl sulfoxide control or compound was added, followed by biotinylated β3 peptide, and avidin-coated AlphaScreen donor beads. After a 4-h incubation period at room temperature (while protected from light), assays plates were read on an Infinite M1000 (Tecan) multiplate reader (Ex. 680/30; Em. 570/100).
Figure 3 Dose-response curves in primary and orthogonal screens. (A) AlphaScreen dose-response curves. […] Data are expressed as mean fluorescence (Fl520) ± range from duplicates, and one representative experiment of “n” performed is shown. (B) Orthogonal ELISA-based dose-response assays. […] Data are expressed as mean abs450 ± SEM from triplicate determinations, and one of three representative experiments is shown. (C) Ceftazidime inhibition of β3 peptide binding to Syk from THP-1 whole cell lysate. THP-1 cell lysate (100 ug) was treated with or without ceftazidime (Ctaz) before incubation with β3-coated avidin-agarose beads, and bound Syk was measured by western blot (example shown in inset). Blank beads served as a negative control. Equal β3 peptide loading was verified by probing blots with avidin-HRP (not shown).

[2] = target: T2, integrin β3 cytoplasmic domain (bβ3(fl)) : GST-Syk(6-370) (Homo sapiens, UniProt P43405); assay: ELISA-based orthogonal assay, bβ3(fl) and GST-Syk(6-370); format: binding
T2 construct: the tandem SH2 domains of Syk (residues 6-370); made in house; host or cells: E. coli BL21(DE3)
Procedure: For ELISA-based assays, 96-well plates (Costar cat# 9018) were coated overnight at 4°C with neutravidin (Thermo Scientific, cat#31050) in 10 mM Tris pH 9 and 100 mM NaCl. After overnight incubation, non-specific binding sites were blocked with bovine serum albumin (BSA) (2% w/v) for at least 1 h at room temperature. Plates were washed in 25 mM HEPES pH 7.5, 100 mM NaCl, 0.1% BSA, and 0.01% TritonX-100 (assay buffer), and indicated biotinylated β3 peptide was incubated for at least 2 h at room temperature (0.5–3 ug/ml in di-H2O). After washing in the assay buffer, GST-fusion proteins were added (50 ul, indicated concentrations) and incubated at room temperature for 1 h in assay buffer. For compound inhibition studies, compounds were added to GST-fusion proteins (at indicated concentrations) before they were added to plates. Plates were washed 3× with assay buffer (200 ul) to remove unbound GST-fusion protein. Horseradish peroxidase (HRP)-conjugated anti-GST antibody [Polyclonal anti-GST(Z-5)-HRP, Santa Cruz Biotechnology, cat #sc-459 0.2 ug/ml] was incubated in washed plates in 50 ul assay buffer for 45 min at room temperature. After washing, the signal was generated with 1-step Ultra TMB-ELISA (Thermo Scientific, cat#34028), stopped with 2 N H2SO4, and read on a plate reader (SPARK 10M/Tecan) at 450 nm.
Figure 3 Dose-response curves in primary and orthogonal screens. (A) AlphaScreen dose-response curves. […] Data are expressed as mean fluorescence (Fl520) ± range from duplicates, and one representative experiment of “n” performed is shown. (B) Orthogonal ELISA-based dose-response assays. […] Data are expressed as mean abs450 ± SEM from triplicate determinations, and one of three representative experiments is shown. (C) Ceftazidime inhibition of β3 peptide binding to Syk from THP-1 whole cell lysate. THP-1 cell lysate (100 ug) was treated with or without ceftazidime (Ctaz) before incubation with β3-coated avidin-agarose beads, and bound Syk was measured by western blot (example shown in inset). Blank beads served as a negative control. […]

[3] = tested on: MCP-1 gene expression in THP-1 cells; assay: Quantitative PCR of adhesion-dependent MCP-1 expression in THP-1 cells; format: cell-based, human; conditions: 100 µM loaded cells, plated on CS-1, 4 h, qPCR
Procedure: THP-1 cells (2 × 10^6 per treatment group) that were glycerol loaded with ceftazidime (100 µM) or vehicle control (as described above) were plated on CS-1 peptide (10 µg/ml; 6-well plates) in serum-free RPMI-1640. Control cells were also kept in suspension. Plated and suspension cells were incubated for 4 h at 37°C. After incubation, the medium was removed, and RNA was isolated from cells with a Qiagen RNA extraction kit. After cDNA synthesis, quantitative real-time PCR was used to determine the relative gene expression levels of IL-1β and monocyte chemoattractant protein (MCP)-1 in THP-1 cells adhered to CS-1 in the presence of vehicle or ceftazidime relative to that of cells in suspension. The cycle threshold (Ct) results generated were analyzed according to the comparative Ct method (2^-ΔΔCt), where ΔCt is the difference between the CT value of target versus GAPDH control, and ΔΔCt is the difference between the ΔCt values of a given treated adherent cell sample and that of cells in suspension. Statistical differences between the two treatment groups for each target were determined by a two-tailed, unpaired Student t test using GraphPad Prism 7.04 statistical software.
Figure 6 Selective inhibition of integrin signaling by ceftazidime. […] Data are expressed as mean ± range from duplicate determinations. […] Kinase activity is expressed as percent of maximum signal. […]

THP-1 cells = assay: THP-1 cell adhesion to CS-1; format: cell-based, human; conditions: cells loaded by glycerol shock
Procedure: Supplemental Figure 6. Effects of ceftazidime on THP-1 adhesion to CS-1. Cells were loaded with ceftazidime by glycerol shock. After loading, cells were washed with media and loaded with calcein-AM. CS-1–conjugated bovine serum albumin was immobilized in 96-well plates (5 ug/ml), and adhesion assays were performed as previously described (1). Data are expressed as average fluorescence ± standard deviation from triplicates. One of two representative experiments is shown. The green line represents cell adhesion in the absence of ceftazidime.

Compound: CC(C)(O/N=C(\C(=O)N[C@@H]1C(=O)N2C(C(=O)[O-])=C(C[n+]3ccccc3)CS[C@H]12)c1csc(N)n1)C(=O)O [ceftazidime]
- IC50 ([1]; Figure 3A: biotinylated-b3(sh) peptide 30 nM, GST-Syk(6-370) 0.3 nM, read-out: IC50, AlphaScreen dose-response): 1.02 ± 0.2 µM
- IC50 ([1]; abstract summary for both compounds, read-out: IC50 range, inhibition of integrin β-subunit cytoplasmic domain binding to the tandem SH2 domains of Syk): 1.02 to 4.9 µM
- IC50 ([1]; as restated in the Discussion, read-out: IC50 in AlphaScreen assays): 1 µM
- IC50 ([1]; biotinylated β chain peptide 30 nM, GST-Syk(6-370) 0.3 nM, Figure 4A, read-out: antagonist activity against β3 (value without measure name), AlphaScreen): 1.87 ± 0.2 µM
- fold difference in inhibition, primary screen over false-positive counter screen (hit criterion) ([1]; re-sourced compounds, counter screen with biotinylated GST): greater than 3 fold
- inhibition of fluorescent signal in the primary screen, re-sourced compounds (hit criterion) ([1]; re-sourced from a separate commercial source, 25 uM in text, 30 uM in legend of Figure 2C): greater than 50%
- inhibitory activity in ELISA-based orthogonal assay [2]: remained active
- adhesion-dependent induction of the expression of MCP-1 [3]: significantly inhibited
- effect on THP-1 cell adhesion to CS-1 (THP-1 cells): not due to ceftazidime inhibition of THP-1 cell adhesion to CS-1
